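Interpolation was linear, between the two tested concentrations surrounding the appropriate level; five concentrations were tested over 48 hours in 96-well plates. GI50: concentration for 50% inhibition of growth.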 Activity calls are given as the source filed them. Rule as the data show it: active = GI50 up to about 1.1 µM and inactive = higher.
Key:
Test in all cases: growth of human tumour cells (NCI), 48 h
DMS-273 = test system: DMS-273
HOP-18 = test system: HOP-18
MOLT-4 = test system: MOLT-4
HCT-116 = test system: HCT-116
SN12C = test system: SN12C
U-251 = test system: U-251
K562 = test system: K562
SW-620 = test system: SW-620
SF-295 = test system: SF-295
EKVX = test system: EKVX
SK-MEL-28 = test system: SK-MEL-28
UACC-62 = test system: UACC-62
SK-MEL-2 = test system: SK-MEL-2
HOP-92 = test system: HOP-92
SNB-78 = test system: SNB-78
ACHN = test system: ACHN
Malme-3M = test system: Malme-3M
IGROV-1 = test system: IGROV-1
HT-29 = test system: HT-29
OVCAR-3 = test system: OVCAR-3
OVCAR-4 = test system: OVCAR-4
KM-20L2 = test system: KM-20L2
M14 = test system: M14
RPMI-8226 = test system: RPMI-8226
M19-MEL = test system: M19-MEL
SF-539 = test system: SF-539
LXFL 529 = test system: LXFL 529
DMS-114 = test system: DMS-114
CCRF-CEM = test system: CCRF-CEM
SK-MEL-5 = test system: SK-MEL-5
786-0 = test system: 786-0
NCI-H522 = test system: NCI-H522
SK-OV-3 = test system: SK-OV-3
COLO 205 = test system: COLO 205
UO-31 = test system: UO-31
XF498 = test system: XF498
OVCAR-5 = test system: OVCAR-5
OVCAR-8 = test system: OVCAR-8
SNB-19 = test system: SNB-19
TK-10 = test system: TK-10
NCI-H226 = test system: NCI-H226
SNB-75 = test system: SNB-75
LOX IMVI = test system: LOX IMVI
HOP-62 = test system: HOP-62
KM12 = test system: KM12
HL-60 = test system: HL-60
NCI-H460 = test system: NCI-H460
A498 = test system: A498
CAKI-1 = test system: CAKI-1
SF-268 = test system: SF-268
RXF 393 = test system: RXF 393
RXF 631 = test system: RXF 631
HCT-15 = test system: HCT-15
A549 = test system: A549
NCI-H23 = test system: NCI-H23
UACC-257 = test system: UACC-257

`C[C@]12CCC(=O)C(O)=C1CC[C@@H]1C2CC[C@]2(C)NC(=O)CCC12` (stereo partly specified) was tested, and the GI50 (DMS-273) was > 100 µM (inactive), the GI50 (HOP-18) was > 100 µM (inactive) and the GI50 (MOLT-4) was > 100 µM (inactive). For the same compound, the GI50 (HCT-116) was > 100 µM (inactive), the GI50 (SN12C) was > 100 µM (inactive) and the GI50 (U-251) was > 100 µM (inactive). For the same compound, the GI50 (K562) was > 100 µM (inactive), the GI50 (SW-620) was > 100 µM (inactive) and the GI50 (SF-295) was > 100 µM (inactive). For the same compound, the GI50 (EKVX) was > 100 µM (inactive), the GI50 (SK-MEL-28) was > 100 µM (inactive) and the GI50 (UACC-62) was > 100 µM (inactive). For the same compound, the GI50 (SK-MEL-2) was > 100 µM (inactive), the GI50 (HOP-92) was > 100 µM (inactive) and the GI50 (SNB-78) was > 100 µM (inactive). For the same compound, the GI50 (ACHN) was > 100 µM (inactive), the GI50 (Malme-3M) was > 100 µM (inactive) and the GI50 (IGROV-1) was > 100 µM (inactive). For the same compound, the GI50 (HT-29) was > 100 µM (inactive), the GI50 (OVCAR-3) was > 100 µM (inactive) and the GI50 (OVCAR-4) was > 100 µM (inactive). For the same compound, the GI50 (KM-20L2) was > 100 µM (inactive), the GI50 (M14) was > 100 µM (inactive) and the GI50 (RPMI-8226) was > 100 µM (inactive). For the same compound, the GI50 (M19-MEL) was > 100 µM (inactive), the GI50 (SF-539) was > 100 µM (inactive) and the GI50 (LXFL 529) was > 100 µM (inactive). The GI50 (DMS-114) was > 100 µM (inactive), the GI50 (CCRF-CEM) was > 100 µM (inactive) and the GI50 (SK-MEL-5) was > 100 µM (inactive). For the same compound, the GI50 (786-0) was > 100 µM (inactive), the GI50 (NCI-H522) was > 100 µM (inactive) and the GI50 (SK-OV-3) was > 100 µM (inactive). For the same compound, the GI50 (COLO 205) was > 100 µM (inactive), the GI50 (UO-31) was > 100 µM (inactive) and the GI50 (XF498) was > 100 µM (inactive). For the same compound, the GI50 (OVCAR-5) was > 100 µM (inactive), the GI50 (OVCAR-8) was > 100 µM (inactive) and the GI50 (SNB-19) was > 100 µM (inactive). For the same compound, the GI50 (TK-10) was > 100 µM (inactive), the GI50 (NCI-H226) was > 100 µM (inactive) and the GI50 (SNB-75) was > 100 µM (inactive). For the same compound, the GI50 (LOX IMVI) was > 100 µM (inactive), the GI50 (HOP-62) was > 100 µM (inactive) and the GI50 (KM12) was > 100 µM (inactive). For the same compound, the GI50 (HL-60) was > 100 µM (inactive), the GI50 (NCI-H460) was > 100 µM (inactive) and the GI50 (A498) was > 100 µM (inactive). For the same compound, the GI50 (CAKI-1) was > 100 µM (inactive), the GI50 (SF-268) was > 100 µM (inactive) and the GI50 (RXF 393) was > 100 µM (inactive). The GI50 (RXF 631) was > 100 µM (inactive), the GI50 (HCT-15) was 70.6 µM and the GI50 (A549) was > 100 µM (inactive). The GI50 (NCI-H23) was > 100 µM (inactive) and the GI50 (UACC-257) was > 100 µM (inactive).

Reference: ChEMBL document CHEMBL1201862, “PubChem BioAssay data set” (2004)
